Measurements published in article PMC7785020, “A unique hormonal recognition feature of the human glucagon-like peptide-2 receptor” (Cell Research, 2020).
Numbering of substitutions follows the chain as printed.

How the values were obtained:
Design in all cases: WT (1–553); expressed in transfected cells
[1] = target: T1, GLP-2R R242^ECL1A (Homo sapiens, UniProt O95838, R242A); test: radioligand competition binding, R242^ECL1A; conditions: COS-7, R242^ECL1A; [^125I]GLP-2(1–33, M10Y) 10–15 pM, 4 h, 4 °C; mean ± SEM, n ≥ 3 in duplicate
T1 sequence (O95838 1-553 R242A): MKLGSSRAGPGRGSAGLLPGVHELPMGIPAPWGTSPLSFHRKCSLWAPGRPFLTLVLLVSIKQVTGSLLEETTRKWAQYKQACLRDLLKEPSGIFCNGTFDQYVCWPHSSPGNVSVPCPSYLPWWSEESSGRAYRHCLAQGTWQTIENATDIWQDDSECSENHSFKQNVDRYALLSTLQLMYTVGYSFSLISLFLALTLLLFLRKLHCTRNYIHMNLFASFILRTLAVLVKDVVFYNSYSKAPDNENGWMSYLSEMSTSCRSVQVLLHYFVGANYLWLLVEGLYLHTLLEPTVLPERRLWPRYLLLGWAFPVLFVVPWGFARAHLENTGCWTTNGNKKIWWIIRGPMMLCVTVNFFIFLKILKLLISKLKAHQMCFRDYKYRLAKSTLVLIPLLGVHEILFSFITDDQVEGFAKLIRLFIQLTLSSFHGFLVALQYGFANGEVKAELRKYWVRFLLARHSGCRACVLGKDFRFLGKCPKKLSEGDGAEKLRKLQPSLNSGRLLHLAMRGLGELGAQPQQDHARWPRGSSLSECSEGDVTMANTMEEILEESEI
Method: (§1) A stepwise oxidation reaction was performed by addition of 6 aliquots of 5 µL ChloramineT (30 µL/mL) with a 1-min interval during constant stirring. The reaction was terminated by the addition of 400 µL phase A (0.1% trifluoracetic acid) before being fractionated into 1 mL volume by reverse-phase high-performance liquid chromatography (RP-HPLC, Waters 600 SimiPrep system) on a C18 column. The iodinated protein was […] by increasing concentrations of phase B (Acetonitrile + 0.1% TFA) and tested for competitive binding ability.
(§2) One day before transfection, the COS-7 cells were seeded in 75 cm^2 culture flasks (3 million cells/flask) in DMEM, containing 3.9 g/L NaHCO3 and supplemented with 10% FBS, 1% L-glutamine, 180 units/mL penicillin and 45 µg/mL streptomycin. After an overnight culture at 37 °C, 10% CO2 and 95% air humidity, the cells were transiently transfected with different GLP-2R constructs or pcDNA3.1 vector as previously described.[52] Following 24-h incubation, the cells were transferred to Costa® microtiter plates (150,000 cells/well, PerkinElmer) to achieve a 5%–10% specific binding. […] The cells were then washed twice in binding buffer (4 °C), lysed and counted for radioactivity using a Wallac Gamma Counter (PerkinElmer).

[2] = target: T2, GLP-2R N247^ECL1A (Homo sapiens, UniProt O95838, N247A); test: radioligand competition binding, N247^ECL1A; conditions: COS-7, N247^ECL1A; [^125I]GLP-2(1–33, M10Y) 10–15 pM, 4 h, 4 °C; mean ± SEM, n ≥ 3 in duplicate
T2 sequence (O95838 1-553 N247A): T1 sequence (O95838 1-553 R242A) with A242R, N247A
Method: as §1, §2

[3] = target: T3, GLP-2R W249^ECL1A (Homo sapiens, UniProt O95838, W249A); test: radioligand competition binding, W249^ECL1A; conditions: COS-7, W249^ECL1A; [^125I]GLP-2(1–33, M10Y) 10–15 pM, 4 h, 4 °C; mean ± SEM, n ≥ 3 in duplicate
T3 sequence (O95838 1-553 W249A): T1 sequence (O95838 1-553 R242A) with A242R, W249A
Method: as §1, §2

Compound	% Binding of WT [1] [%]	% Binding of WT [2] [%]	% Binding of WT [3] [%]
CC[C@H](C)[C@H](NC(=O)[C@H](Cc1ccccc1)NC(=O)[C@H](CC(=O)O)NC(=O)[C@H](CCCNC(=N)N)NC(=O)[C@H](C)NC(=O)[C@H](C)NC(=O)[C@H](CC(C)C)NC(=O)[C@H](CC(N)=O)NC(=O)[C@H](CC(=O)O)NC(=O)[C@H](CC(C)C)NC(=O)[C@@H](NC(=O)[C@@H](NC(=O)[C@H](CC(N)=O)NC(=O)[C@H](CCSC)NC(=O)[C@H](CCC(=O)O)NC(=O)[C@H](CC(=O)O)NC(=O)[C@H](CO)NC(=O)[C@H](Cc1ccccc1)NC(=O)[C@H](CO)NC(=O)CNC(=O)[C@H](CC(=O)O)NC(=O)[C@H](C)NC(=O)[C@@H](N)Cc1c[nH]cn1)[C@@H](C)O)[C@@H](C)CC)C(=O)N[C@@H](CC(N)=O)C(=O)N[C@@H](Cc1c[nH]c2ccccc12)C(=O)N[C@@H](CC(C)C)C(=O)N[C@H](C(=O)N[C@@H](CCC(N)=O)C(=O)N[C@H](C(=O)N[C@@H](CCCCN)C(=O)N[C@H](C(=O)N[C@H](C(=O)N[C@@H](CC(=O)O)C(=O)O)[C@@H](C)O)[C@@H](C)CC)[C@@H](C)O)[C@@H](C)CC [Human GLP-2 (1–33)]	4.2 ± 0.6	130.7 ± 4.5	2.2 ± 1.2
CC[C@H](C)[C@H](NC(=O)[C@H](Cc1ccccc1)NC(=O)[C@H](CC(=O)O)NC(=O)[C@H](CCCNC(=N)N)NC(=O)[C@H](C)NC(=O)[C@H](C)NC(=O)[C@H](CC(C)C)NC(=O)[C@H](CC(N)=O)NC(=O)[C@H](CC(=O)O)NC(=O)[C@H](CC(C)C)NC(=O)[C@@H](NC(=O)[C@@H](NC(=O)[C@H](CC(N)=O)NC(=O)[C@H](CCSC)NC(=O)[C@H](CCC(=O)O)NC(=O)[C@H](CC(=O)O)NC(=O)[C@H](CO)NC(=O)[C@H](Cc1ccccc1)NC(=O)[C@H](CO)NC(=O)CNC(=O)[C@H](CC(=O)O)NC(=O)CNC(=O)[C@@H](N)Cc1c[nH]cn1)[C@@H](C)O)[C@@H](C)CC)C(=O)N[C@@H](CC(N)=O)C(=O)N[C@@H](Cc1c[nH]c2ccccc12)C(=O)N[C@@H](CC(C)C)C(=O)N[C@H](C(=O)N[C@@H](CCC(N)=O)C(=O)N[C@H](C(=O)N[C@@H](CCCCN)C(=O)N[C@H](C(=O)N[C@H](C(=O)N[C@@H](CC(=O)O)C(=O)O)[C@@H](C)O)[C@@H](C)CC)[C@@H](C)O)[C@@H](C)CC [Teduglutide]	5.1 ± 1.5	135.2 ± 4.4	2.9 ± 2.0
